Among the test systems are NCI-H23 lung; RXF 393 renal; A549 NSCLC; BT-549 breast; UACC-257 melanoma; CCRF-CEM leukemia; NCI-H226 lung; HCT-15 colon; M14 melanoma; IGROV1 ovarian; UACC-62 melanoma; MCF7 breast; K-562 leukemia; ACHN renal; 786-0 renal; CAKI-1 renal; UO-31 renal; OVCAR-4 ovarian.
Common to all, as to experiment: growth of human tumour cells (NCI), 48 h

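1) Cells in 96-well plates. 2) Compound, 48 h, 5 concentrations. 3) Linear interpolation between surrounding doses. 4) Unreached endpoint = highest concentration. TGI marks complete inhibition of growth.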 Bounds are passed on as bounds.

In the case of `Cc1cc(C)nc(NS(=O)(=O)c2ccc(NNc3c4ccccc4nc4c(C(=O)Nc5ccc(S(=O)(=O)Nc6ncccn6)cc5)cccc34)cc2)n1`, the TGI was 69.5 µM in the assay with NCI-H23 lung; 80.1 µM in the assay with RXF 393 renal; greater than 100 µM in the assay on A549 NSCLC; greater than 100 µM with BT-549 breast; 94.3 µM in the assay with UACC-257 melanoma; 59.9 µM in the assay on CCRF-CEM leukemia. Besides, the TGI is 53.2 µM in the assay on NCI-H226 lung; greater than 100 µM with HCT-15 colon; greater than 100 µM in the assay on M14 melanoma; greater than 100 µM in the assay with IGROV1 ovarian; 83.7 µM in the assay on UACC-62 melanoma; greater than 100 µM in the assay with MCF7 breast. For the same compound, the TGI with K-562 leukemia was 73.1 µM; with ACHN renal, 54.3 µM; in the assay on 786-0 renal it was greater than 100 µM; in the assay with CAKI-1 renal, greater than 100 µM; in the assay with UO-31 renal it was greater than 100 µM; with OVCAR-4 ovarian it was 89.7 µM.
For `CN1CCC2(CC1)SC[C@H]1C(=O)N(c3ccc(Cl)cc3)C(=O)N12`, the TGI with NCI-H23 lung, in the assay with RXF 393 renal, in the assay on A549 NSCLC, with BT-549 breast, in the assay with UACC-257 melanoma and in the assay on CCRF-CEM leukemia was greater than 100 µM in each case. Besides, the TGI in the assay on NCI-H226 lung, with HCT-15 colon, in the assay with M14 melanoma, in the assay on IGROV1 ovarian, in the assay on UACC-62 melanoma and in the assay on MCF7 breast was greater than 100 µM throughout. Further, the TGI in the assay on K-562 leukemia, in the assay with ACHN renal, in the assay on 786-0 renal, in the assay on CAKI-1 renal, with UO-31 renal and in the assay with OVCAR-4 ovarian was greater than 100 µM in each case.
As to `O=C1C(=O)c2c(oc(=O)c3ccccc23)-c2ccccc21`, the TGI in the assay with NCI-H23 lung, in the assay with RXF 393 renal, in the assay with A549 NSCLC, in the assay with BT-549 breast, in the assay on UACC-257 melanoma and in the assay on CCRF-CEM leukemia was greater than 25 µM throughout. Also, the TGI in the assay on NCI-H226 lung, with HCT-15 colon, with M14 melanoma, with IGROV1 ovarian, with UACC-62 melanoma and with MCF7 breast was greater than 25 µM each time. In addition, the TGI was greater than 25 µM with K-562 leukemia; greater than 25 µM with ACHN renal; greater than 25 µM in the assay with 786-0 renal; greater than 25 µM in the assay on CAKI-1 renal; greater than 25 µM with UO-31 renal; 20.3 µM in the assay with OVCAR-4 ovarian.
Consider `CC1(C)CN=C(c2ccc3c(c2)Cc2cc(C4=NCC(C)(C)N4)ccc2-3)N1`, for which the TGI in the assay on NCI-H23 lung, with RXF 393 renal, in the assay on A549 NSCLC, in the assay with BT-549 breast, with UACC-257 melanoma and in the assay with CCRF-CEM leukemia was greater than 100 µM throughout. The TGI with NCI-H226 lung is greater than 100 µM; with HCT-15 colon, greater than 100 µM; with M14 melanoma, greater than 100 µM; in the assay on IGROV1 ovarian, greater than 100 µM; with UACC-62 melanoma, 69.5 µM; in the assay with MCF7 breast, 86.5 µM. For the same compound, the TGI in the assay on K-562 leukemia is 90.4 µM; in the assay on ACHN renal it was greater than 100 µM; in the assay with 786-0 renal it was greater than 100 µM; in the assay on CAKI-1 renal, greater than 100 µM; with UO-31 renal it was greater than 100 µM; in the assay with OVCAR-4 ovarian, greater than 100 µM.
Consider `CCOC(=O)C(SCCO)C(C(=O)OCC)n1cnc2c(N)ncnc21` (stereo unspecified), for which the TGI in the assay with NCI-H23 lung was 31.2 µM; with RXF 393 renal, 29.6 µM; in the assay with A549 NSCLC, greater than 100 µM; in the assay on BT-549 breast, 30.8 µM; with UACC-257 melanoma, greater than 80.2 µM; in the assay with CCRF-CEM leukemia, 6.39 µM. The TGI in the assay on NCI-H226 lung stood at 38 µM; in the assay on HCT-15 colon, 22.5 µM; with M14 melanoma, 9.83 µM; with IGROV1 ovarian, 36.5 µM; in the assay with UACC-62 melanoma, 24.7 µM; in the assay on MCF7 breast it was 20.1 µM. Moreover, the TGI with K-562 leukemia is 14.6 µM; in the assay on ACHN renal, 22.4 µM; in the assay on 786-0 renal, 12.2 µM; with CAKI-1 renal it was 15.1 µM; with UO-31 renal, 55.1 µM; with OVCAR-4 ovarian, greater than 48.3 µM.
For the compound `O=C1CC(CC(O)[C@@H]2CCCC[C@@H]2O)CC(=O)N1c1ccccc1` (stereo partly specified), the TGI in the assay with NCI-H23 lung, in the assay with RXF 393 renal, in the assay with A549 NSCLC, in the assay on BT-549 breast, in the assay on UACC-257 melanoma and in the assay on CCRF-CEM leukemia was greater than 100 µM each time. Further, the TGI in the assay on NCI-H226 lung, in the assay on HCT-15 colon, with M14 melanoma, in the assay with IGROV1 ovarian, in the assay with UACC-62 melanoma and with MCF7 breast was greater than 100 µM each time. Moreover, the TGI in the assay with K-562 leukemia, in the assay on ACHN renal, in the assay on 786-0 renal, in the assay with CAKI-1 renal, with UO-31 renal and in the assay with OVCAR-4 ovarian was greater than 100 µM in each case.
In the case of `CCCCCCCCCCCCCCCCCCNc1ccn(C2OC(COP(=O)(O)OC3CC(n4cc(F)c(=O)[nH]c4=O)OC3COP(=O)(O)OCC3OC(n4ccc(N)nc4=O)C(O)C3O)C(O)C2O)c(=O)n1` (stereo unspecified), the TGI with NCI-H23 lung is greater than 45.7 µM; in the assay on RXF 393 renal it was greater than 75.5 µM; in the assay with A549 NSCLC it was greater than 51 µM; in the assay on BT-549 breast, 33.4 µM; in the assay with UACC-257 melanoma it was greater than 57.3 µM; with CCRF-CEM leukemia, 3.37 µM. Further, the TGI in the assay with NCI-H226 lung is greater than 82.2 µM; in the assay with HCT-15 colon, 41.4 µM; in the assay on M14 melanoma, 23.4 µM; with IGROV1 ovarian it was 54.9 µM; in the assay with UACC-62 melanoma it was greater than 44.4 µM; with MCF7 breast, greater than 100 µM. In addition, the TGI is greater than 100 µM in the assay on K-562 leukemia; greater than 100 µM in the assay with ACHN renal; greater than 58.1 µM in the assay with 786-0 renal; 35.5 µM in the assay on CAKI-1 renal; greater than 51.9 µM in the assay with UO-31 renal; greater than 100 µM in the assay with OVCAR-4 ovarian.

Values taken from PubChem BioAssay (NCI).
